Here are results for one molecule from US6638935B2, “Heteroary1 derivatives and their use as medicaments” (Zentaris AG, priority 2000, dated 2003).

By melting point is commonly meant the temperature, or range, at which the solid turns liquid.

On to `COc1cc(OC)cc(N2CCN(C(=O)c3ccncc3)CC2)c1` [Example 13, 1-(3,5-Dimethoxyphenyl)-4-(4-pyridyl-carbonyl)piperazine], for which the melting point is 94 to 96 °C.
